According to US7880007B2, “Bicyclic substituted phenyl piperidine modulators of muscarinic receptors” (Vertex Pharmaceuticals Incorporated, priority 2004, dated 2011):

Columns and labels:
Format in all cases: cell-based
M2 muscarinic receptor = molecular target: T1, M2 muscarinic receptor (Homo sapiens, UniProt P08172); experiment: Functional mobilization of intracellular calcium (FLIPR), M2-CHO cells; details: for Emax: 100% efficacy = maximum response obtained with the Carbachol control; for M2 Activity: M2-CHO cells, calcium mobilization (FLIPR)
T1 construct: expressed in transfected cells; host or cells: CHO (M2-CHO)
T1 sequence (P08172 1-466): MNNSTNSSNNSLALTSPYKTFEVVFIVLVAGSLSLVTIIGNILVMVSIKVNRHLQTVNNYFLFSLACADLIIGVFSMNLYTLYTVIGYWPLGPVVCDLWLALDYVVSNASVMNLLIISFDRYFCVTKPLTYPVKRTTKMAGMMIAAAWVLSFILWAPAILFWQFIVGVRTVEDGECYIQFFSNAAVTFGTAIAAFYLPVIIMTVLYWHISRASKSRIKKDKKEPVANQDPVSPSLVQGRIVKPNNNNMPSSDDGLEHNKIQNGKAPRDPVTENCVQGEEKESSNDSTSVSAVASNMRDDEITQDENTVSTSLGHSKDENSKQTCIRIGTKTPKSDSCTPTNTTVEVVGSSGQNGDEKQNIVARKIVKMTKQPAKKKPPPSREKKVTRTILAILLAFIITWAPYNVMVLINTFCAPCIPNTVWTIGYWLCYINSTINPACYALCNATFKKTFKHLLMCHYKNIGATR
Procedure: (§1) Functional Mobilization of Intracellular Calcium to Determine Muscarinic Receptor Activity:
(§2) CHO cells expressing muscarinic receptors (M1 to M5) are grown as monolayers in tissue culture flasks at 37° C. in a humidified atmosphere containing 5% CO2 and passaged every 3-5 days. The growth media is Dulbecco's modified eagles medium (DMEM, Gibco Cat #12430-054), containing 25 mM Hepes and supplemented with Fetal Bovine Serum (Hyclone, cat #SH30071.03), 0.1 mM of MEM non-essential amino acids (GIBCO, Cat #11140-050), 1 mM MEM Sodium Pyruvate (GIBCO Cat #11360-070) and 100 units/ml of Penicillin G and 100 μg/ml of Streptomycin (GIBCO Cat #15140-122). The recombinant muscarinic receptor cell lines are grown under antibiotic pressure with media containing 25 μg/ml zeocin and 500 μg/ml G418 (M1-CHO), 4 μg/ml puromycin, 50 μg/ml zeocin and 2.5 μg/ml blasticidin (M2 and M4-CHO) or 50 μg/ml zeocin and 4 μg/ml puromycin (M3 and M5-CHO).
(§3) Cells are harvested at 80-90% confluence using Versene (GIBCO Cat #15040-066), collected by centrifugation and seeded 18-24 hrs prior to running the calcium assay at a density of 5,000-10,000 cells/well in […], clear-bottomed 384-well plates (BD Biocoat, poly-D-lysine, Cat #356663). The day of the experiment, the cells are washed with a plate washer (Bioteck Instruments, ELX 405) using bath 1 buffer (140-mM NaCl, 4.5-mM KCl, 2-mM CaCl2, 1-mM MgCl2, 10-mM Hepes-Na, 10-mM Glucose, pH 7.4, with NaOH) containing 1 mM Probenecid. Next, the calcium dye Fluo-3 (25 μl/well of Fluo-3 AM at 4 μM, Molecular Probes F-1241, in Bath 1 buffer containing 1 mM Probenecid) is added to the 25 μl of Bath 1 remaining in each well after the plate wash and the dye is loaded at 37° C. in the tissue culture incubator for 60-90 min. The fluorescent dye is removed using the plate washer with Bath 1 containing 1 mM Probenecid, leaving 25 μl/well of this solution after the wash. Alternatively, cells can be loaded with the calcium indicator from Molecular Devices (Calcium 3 Assay Reagents, Cat #R7181) adding 5 μl of a 5× solution dye in Bath 1 containing 1 mM Probenecid (10 ml per dye flask cat #R7182 to generate a solution 20×) to 20 μl of the same buffer. After loading for 60 min, the experiment can be run without having to remove the dye.
(§4) Compounds are prepared at a 2× fold concentration in a 96-well plate (round bottom, Costar Corning cat #3656), by reconstituting the pre-spotted compounds in bath 1 containing 1 mM probenecid. The final concentration DMSO is 0.5%, and the amount of DMSO is normalized across the assay plate. To determine an agonist action of the compounds on muscarinic receptors, the reconstituted compounds are added (25 μl compound/well) to the cell assay plate (containing 25 μl/well) using the multi-channel robotic system of the FLIPR 3 Instrument (Molecular Devices, Sunnyvale, Calif.). To determine a functional inhibitory action of the compounds on muscarinic receptors, the reconstituted compounds are added (25 μl compound/well) to the assay plate and pre-incubated for 15 min prior to adding 25 μl of Carbachol at 3× the EC80 for each muscarinic subtype. Alternatively, the compounds can be co-applied simultaneously with the agonist. In both assay modes, the fluorescence is recorded for 60 sec (excitation wavelength is […] and emission wavelength 540 nm) using the FLIPR 3 instrument.
(§5) The potency, efficacy and selectivity of the muscarinic compounds were evaluated by screening the compound activity across the whole family (M1 to M5 cells). Compounds were also screened for activity on other proteins such as other GPCRs and ion channels to determine selectivity on M4 receptors.
(§6) Examples of activities and efficacies of the muscarinic compounds of formulae (I, Ia, Ib, and II) on modulating M1, M2, M3 and M4 receptors are shown below in Table 3. […]

M1 muscarinic receptor = molecular target: T2, M1 muscarinic receptor (Homo sapiens, UniProt P11229); experiment: Functional mobilization of intracellular calcium (FLIPR), M1-CHO cells; details: for Emax: 100% efficacy = maximum response obtained with the Carbachol control; for M1 Activity: M1-CHO cells, calcium mobilization (FLIPR)
T2 construct: expressed in transfected cells; host or cells: CHO (M1-CHO)
T2 sequence (P11229 1-460): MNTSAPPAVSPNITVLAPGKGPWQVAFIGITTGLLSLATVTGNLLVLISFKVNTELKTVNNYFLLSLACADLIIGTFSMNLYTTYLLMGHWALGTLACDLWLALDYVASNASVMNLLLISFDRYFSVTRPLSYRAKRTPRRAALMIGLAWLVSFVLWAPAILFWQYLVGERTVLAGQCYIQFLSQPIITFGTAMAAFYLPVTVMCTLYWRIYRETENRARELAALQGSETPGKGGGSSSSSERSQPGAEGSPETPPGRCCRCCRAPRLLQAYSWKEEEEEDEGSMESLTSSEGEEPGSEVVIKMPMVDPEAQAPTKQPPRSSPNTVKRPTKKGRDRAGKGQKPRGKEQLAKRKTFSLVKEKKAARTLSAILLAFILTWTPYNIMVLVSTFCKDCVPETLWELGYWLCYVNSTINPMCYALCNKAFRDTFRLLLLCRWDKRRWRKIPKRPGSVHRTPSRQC
Procedure: as §1, §2, §3, §4, §5, §6

M4 muscarinic receptor = molecular target: T3, M4 muscarinic receptor (Homo sapiens, UniProt P08173); experiment: Functional mobilization of intracellular calcium (FLIPR), M4-CHO cells; details: for Emax: 100% efficacy = maximum response obtained with the Carbachol control; for M4 Activity: M4-CHO cells, calcium mobilization (FLIPR)
T3 construct: expressed in transfected cells; host or cells: CHO (M4-CHO)
T3 sequence (P08173 1-479): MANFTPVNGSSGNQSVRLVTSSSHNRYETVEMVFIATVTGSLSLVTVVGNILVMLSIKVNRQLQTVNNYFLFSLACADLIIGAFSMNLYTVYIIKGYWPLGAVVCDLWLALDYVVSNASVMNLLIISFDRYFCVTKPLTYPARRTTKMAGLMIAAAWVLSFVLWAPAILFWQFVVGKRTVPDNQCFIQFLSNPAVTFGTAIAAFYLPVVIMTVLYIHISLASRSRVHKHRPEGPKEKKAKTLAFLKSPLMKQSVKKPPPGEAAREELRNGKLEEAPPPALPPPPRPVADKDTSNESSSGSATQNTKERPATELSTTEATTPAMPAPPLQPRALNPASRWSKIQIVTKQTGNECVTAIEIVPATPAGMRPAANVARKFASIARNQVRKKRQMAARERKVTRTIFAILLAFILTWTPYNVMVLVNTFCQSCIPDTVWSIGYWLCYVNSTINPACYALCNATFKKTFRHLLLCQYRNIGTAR
Procedure: as §1, §2, §3, §4, §5, §6

Structure (SMILES)	Emax (M2 muscarinic receptor)	M2 Activity (M2 muscarinic receptor)	Emax (M1 muscarinic receptor)	M1 Activity (M1 muscarinic receptor)	Emax (M4 muscarinic receptor)	M4 Activity (M4 muscarinic receptor)
COc1ccc(C)cc1C1CCN(CC2C[C@H]3CC[C@H]2C3)CC1 (stereo partly drawn) [Compound 107]	< 25%	+ (activity was measured to be greater than 5.0 μM)	25 to 100%	+ (activity was measured to be greater than 5.0 μM)	25 to 100%	+++ (activity was measured to be less than 1.0 μM)
CCCC1CCC(N2CCC(c3cc(F)ccc3OC)CC2)CC1 (stereo not drawn) [Compound 125]	25 to 100%	++ (activity was measured to be from 1.0 μM to 5.0 μM)	25 to 100%	+++ (activity was measured to be less than 1.0 μM)	25 to 100%	+++ (activity was measured to be less than 1.0 μM)
CCOC(=O)N1C2CCC1CC(N1CCC(C#N)(c3ccccc3OC)CC1)C2 (stereo not drawn) [Compound 131]	< 25%	+ (activity was measured to be greater than 5.0 μM)	25 to 100%	+++ (activity was measured to be less than 1.0 μM)	25 to 100%	+++ (activity was measured to be less than 1.0 μM)
COc1ccccc1C1(C#N)CCN(C2CC3CCC2C3)CC1 (stereo not drawn) [Compound 136]	< 25%	+ (activity was measured to be greater than 5.0 μM)	25 to 100%	+ (activity was measured to be greater than 5.0 μM)	25 to 100%	++ (activity was measured to be from 1.0 μM to 5.0 μM)
COc1ccc(Cl)cc1C1CCN(CC2CC3C=CC2C3)CC1 (stereo not drawn) [Compound 141]	25 to 100%	++ (activity was measured to be from 1.0 μM to 5.0 μM)	25 to 100%	++ (activity was measured to be from 1.0 μM to 5.0 μM)	25 to 100%	+++ (activity was measured to be less than 1.0 μM)
CCOC(=O)N1[C@@H]2CC[C@@H]1CC(N1CCC(c3cc(F)ccc3C)CC1)C2 (stereo partly drawn) [Compound 145]	25 to 100%	+++ (activity was measured to be less than 1.0 μM)	25 to 100%	+++ (activity was measured to be less than 1.0 μM)	25 to 100%	+++ (activity was measured to be less than 1.0 μM)
COc1ccc(C2CCN(CC3C[C@H]4CC[C@H]3C4)CC2)c(OC)c1 (stereo partly drawn) [Compound 159]	< 25%	+ (activity was measured to be greater than 5.0 μM)	< 25%	+ (activity was measured to be greater than 5.0 μM)	< 25%	++ (activity was measured to be from 1.0 μM to 5.0 μM)
CCCC1CCC(N2CCC(O)(c3cc(Cl)ccc3OC)CC2)CC1 (stereo not drawn) [Compound 164]	< 25%	+ (activity was measured to be greater than 5.0 μM)	< 25%	+ (activity was measured to be greater than 5.0 μM)	25 to 100%	++ (activity was measured to be from 1.0 μM to 5.0 μM)
COc1ccc(NC(C)=O)cc1C1CCN(CC2C[C@H]3CC[C@H]2C3)CC1 (stereo partly drawn) [Compound 166]	< 25%	+ (activity was measured to be greater than 5.0 μM)	< 25%	+ (activity was measured to be greater than 5.0 μM)	< 25%	+ (activity was measured to be greater than 5.0 μM)
COc1ccccc1C1(C#N)CCN(C[C@H]2C[C@H]3CC[C@H]2C3)CC1 [Compound 172]	25 to 100%	+++ (activity was measured to be less than 1.0 μM)	25 to 100%	+++ (activity was measured to be less than 1.0 μM)	25 to 100%	+++ (activity was measured to be less than 1.0 μM)
COc1ccc(Cl)cc1C1(OC)CCN(C2CCOCC2)CC1 [Compound 201]	< 25%	+ (activity was measured to be greater than 5.0 μM)	< 25%	+ (activity was measured to be greater than 5.0 μM)	< 25%	+ (activity was measured to be greater than 5.0 μM)
COc1ccc(Cl)cc1C1(OC)CCN(C2CCCCC2)CC1 [Compound 203]	< 25%	+ (activity was measured to be greater than 5.0 μM)	25 to 100%	+ (activity was measured to be greater than 5.0 μM)	25 to 100%	++ (activity was measured to be from 1.0 μM to 5.0 μM)
COc1ccccc1C1CCN(CC2CC3CCC2O3)CC1 (stereo not drawn) [Compound 218]	< 25%	+ (activity was measured to be greater than 5.0 μM)	< 25%	+ (activity was measured to be greater than 5.0 μM)	25 to 100%	++ (activity was measured to be from 1.0 μM to 5.0 μM)
